Data from patent publication US20090093374A1, “METHOD OF ARRAYING CELLS AT SINGLE-CELL LEVEL INSIDE MI[…] AND METHOD OF ANALYSING CELLS USING THE SAME, AND CELL ANALYSIS CHIP USED FOR CARRYING OUT THE SAME” (priority 2007, published 2009).

How the values were obtained:
a-type yeast cell [1] = assay: GFP expression of yeast cells arrayed in shallow rectangular microwells, cell solution pre-treated with α-factor (Embodiment 1); type: cell-based, Saccharomyces cerevisiae; settings: FIG. 14
Text: (§1) For example, to obtain information with regard to a mating of the yeast cell, a pheromone, e.g., so-called α-factor, may be injected into the fluidic channel as the analysis reagent. If an a-type yeast cell is used as the cell, it is preferable that a pheromone of which a sequence is TRP-HIS-TRP-LEU-GLN-LEU-LYS-PRO-GLY-GLN-PRO-MET-TYR, is used as α-factor. In a subsequent operation, when analyzing responses, it is possible to obtain information with regard to whether or not a protein related to the mating is created in a corresponding cell, and the amount of the protein.
(§2) For instance, in the case where the yeast cell is treated with α-factor, it is possible to observe whether or not a protein related to the mating is created and the amount of the protein through the expression intensity of a green fluorescent protein (GFP) with a time. Moreover, in the case where the yeast cell is treated with KCl, it is possible to find out the creation amount of corresponding proteins through a red fluorescent protein (RFP), and also analyze the response of the corresponding yeast cell upon the external stress.
A mixed solution in which a-type yeast cell solution using yeast extract peptone dextrose (YPD) medium had been pre-treated with α-factor, e.g., pheromone having a sequence of TRP-HIS-TRP-LEU-GLN-LEU-LYS-PRO-GLY-GLN-PRO-MET-TYR, was introduced into a fluidic channel through an inlet. The introduced mixed solution filled the fluidic channel through a capillary flow.
After that, the inlet was sealed with a tape so that the mixed solution was evaporated through an outlet. Accordingly, a receding meniscus was generated, allowing the cells to be arrayed in the well structures at a single-cell level. At this time, it took about 10 minutes for the cells to be arrayed while the meniscus was receding.
FIG. 14 is a micrograph showing GFP expression of a yeast cell with respect to α-factor according as a time elapses using the fluidic channel. […]

a-type yeast cell [2] = assay: GFP expression of yeast cells arrayed in deep rectangular microwells, α-factor introduced after arraying and cleaning (Embodiment 2); type: cell-based, Saccharomyces cerevisiae; settings: FIG. 15
Text: as §1, §2
An a-type yeast cell solution using YPD medium was introduced into a fluidic channel. The introduced cell solution was filled into the fluidic channel through a capillary flow. After that, the inlet was sealed with a tape so that the cell solution was evaporated through an outlet. Accordingly, a receding meniscus was generated, thereby allowing the cells to be arrayed in the well structures at a single-cell level.
Afterwards, a cleaning solution containing amino acid, nitrogen, glucose, etc was introduced through the capillary flow caused by a surface tension, residual cells remaining at a side of the inlet were cleaned. At this time, a tissue paper was placed in the outlet to absorb and remove the residual cells and the cleaning solution.
After the residual cells are completely cleaned, […] was also introduced into the microfluidic channel by the capillary flow caused by the surface tension. […]

[3] = 30 minutes after α-factor treatment
[4] = 60 minutes after α-factor treatment
[5] = 120 minutes after α-factor treatment (versus 60 minutes)

Substance: TRP-HIS-TRP-LEU-GLN-LEU-LYS-PRO-GLY-GLN-PRO-MET-TYR (WHWLQLKPGQPMY; printed: TRP-HIS-TRP-LEU-GLN-LEU-LYS-PRO-GLY-GLN-PRO-MET-TYR) [α-factor, pheromone used as analysis reagent for mating response of a-type yeast cell]
- GFP expression (a-type yeast cell [1]; [3]): cannot be observed yet
- GFP expression (a-type yeast cell [1]; [4]): observed to be bright
- GFP expression intensity (a-type yeast cell [1]; [5]): does not vary
- GFP expression (a-type yeast cell [2]; [3]): cannot be observed yet
- GFP expression (a-type yeast cell [2]; [4]): observed to be bright
- GFP expression intensity (a-type yeast cell [2]; [5]): does not vary
